{"source": "PubChem BioAssay AID2743", "about": "(NMMLSC, 2010)", "note": "Calls of active or inactive are those of the source.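 Rule for the calls: active = fitted half-maximal concentration for change in GFP expression of 33 µM or less; inactive = the rest.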", "data": [{"test": "concentration-dependent AGP1-GFP change, TOR pathway – cell-based, flow cytometry, S. cerevisiae, MLPCN hits, dose response (AID 2743)", "settings": "S. cerevisiae AGP1-GFP strain, flow cytometry GFP, 3 h; at 33 µM (top of the series)", "values": [{"smiles": "CCOC(=O)CSC1=NC(=O)/C(=C/c2ccc(Br)cc2)S1", "GFP fluorescence (kMESF)": "37 kMESF (inactive)"}, {"smiles": "Nc1ccccc1SC(C[N+](=O)[O-])c1ccccc1", "note": "(stereo unspecified)", "GFP fluorescence (kMESF)": "39.9 kMESF (inactive)"}, {"smiles": "O=c1oc2ccccc2c(O)c1[C@H]1c2ccc(O)cc2Oc2c1c(=O)oc1ccccc21", "GFP fluorescence (kMESF)": "36.3 kMESF (inactive)"}, {"smiles": "C#CCOCCOCCOCCNc1nc(N2CCN(C(=O)CCCCCCCCCCNC(=O)[C@H](CCCCN)n3cc(C)nn3)CC2)nc(N2CCN(C(=O)CCCCCCCCCCNC(=O)[C@H](CCCN=C(N)N)n3cc(C[C@@H](C)CC)nn3)CC2)n1", "GFP fluorescence (kMESF)": "43.6 kMESF (inactive)"}, {"smiles": "Cc1cc(=O)oc2cc(Oc3ccc([N+](=O)[O-])cc3C(F)(F)F)ccc12", "GFP fluorescence (kMESF)": "42.1 kMESF (inactive)"}, {"smiles": "Cc1cc(=O)n2c3c(sc2n1)C(=O)N(Cc1ccccc1)C3=O", "GFP fluorescence (kMESF)": "44.3 kMESF (inactive)"}, {"smiles": "O=C(O)/C=C/C(=O)c1ccc2c(c1)CCc1ccccc1-2", "GFP fluorescence (kMESF)": "18.9 kMESF (inactive)"}, {"smiles": "CCC(C)/C(C)=N/NC(=O)c1ccc(COc2ccc(Cl)c(C)c2)cc1", "note": "(stereo unspecified)", "GFP fluorescence (kMESF)": "41.2 kMESF (inactive)"}, {"smiles": "COc1ccc(N2C(=O)C(Cl)=C(Nc3c(C)n(C)n(-c4ccccc4)c3=O)C2=O)cc1", "GFP fluorescence (kMESF)": "36.2 kMESF (inactive)"}, {"smiles": "O=C(O)c1ccc2c(c1)C(=O)/C(=C/c1ccccc1)C2=O", "GFP fluorescence (kMESF)": "40.5 kMESF (inactive)"}, {"smiles": "Cc1cc(C)nc(S/C=C/C(=O)c2ccccc2)n1", "GFP fluorescence (kMESF)": "44.8 kMESF (inactive)"}, {"smiles": "CC1=C/C(=N\\OS(=O)(=O)c2ccccc2)C(C)=CC1=O", "GFP fluorescence (kMESF)": "34.7 kMESF (inactive)"}, {"smiles": "O=C1Nc2ccc(Br)cc2/C1=C/C(=O)c1ccc2c(c1)OCO2", "GFP fluorescence (kMESF)": "46.7 kMESF (inactive)"}, {"smiles": "CCN(CC(=O)NC(C)(C)C)C(=O)COc1c(Cl)cc(Cl)c2ccc(C)nc12", "GFP fluorescence (kMESF)": "35.5 kMESF (inactive)"}, {"smiles": "COc1cc(/C=C/[N+](=O)[O-])ccc1O", "GFP fluorescence (kMESF)": "32.3 kMESF (inactive)"}, {"smiles": "C/C(=N/NC(=O)c1ccc(C(C)(C)C)cc1)c1ccccn1", "GFP fluorescence (kMESF)": "55.7 kMESF (inactive)"}, {"smiles": "COc1cccc(N=Cc2nc(-c3ccccc3)oc2OC(C)=O)c1", "GFP fluorescence (kMESF)": "35.9 kMESF (inactive)"}, {"smiles": "Cc1ccc(/C=C2/C(=O)ON=C2c2ccccc2)o1", "GFP fluorescence (kMESF)": "40.1 kMESF (inactive)"}, {"smiles": "N#Cc1ccc(N=c2ssnc2Cl)cc1", "GFP fluorescence (kMESF)": "33.2 kMESF (inactive)"}, {"smiles": "CCCCCCCCCCCCCCCC[n+]1cccc2ccccc21", "GFP fluorescence (kMESF)": "2.67 kMESF (inactive)"}, {"smiles": "O=[N+]([O-])c1ccc(O)c(/C=N/Nc2ccccn2)c1", "GFP fluorescence (kMESF)": "30.3 kMESF (inactive)"}, {"smiles": "CCOc1ccc(N/N=C(/C#N)C(N)=O)cc1", "GFP fluorescence (kMESF)": "54.7 kMESF (inactive)"}, {"smiles": "CC(Oc1ccc(Br)cc1)C(=O)Nc1nc(-c2ccccn2)cs1", "note": "(stereo unspecified)", "GFP fluorescence (kMESF)": "46.5 kMESF (inactive)"}, {"smiles": "Cc1ccc(O)c(N=Nc2nccs2)c1", "GFP fluorescence (kMESF)": "30.4 kMESF (inactive)"}, {"smiles": "COc1cc(N2C(=O)C=CC2=O)c(OC)cc1Cl", "GFP fluorescence (kMESF)": "33.8 kMESF (inactive)"}, {"smiles": "CCOC(=O)CSC1=NC(=O)/C(=C\\c2ccc(Cl)cc2)S1", "GFP fluorescence (kMESF)": "41.8 kMESF (inactive)"}, {"smiles": "CCOC(=O)c1ccc(N=Cc2nc(-c3ccccc3)oc2OC(C)=O)cc1", "GFP fluorescence (kMESF)": "33.5 kMESF (inactive)"}, {"smiles": "COc1cc(/C=C/c2ccc3c(Br)cc(Br)c(O)c3n2)ccc1O", "GFP fluorescence (kMESF)": "27.7 kMESF (inactive)"}, {"smiles": "Nc1ccc2ccc3cccc[n+]3c2c1", "GFP fluorescence (kMESF)": "42.9 kMESF (inactive)"}, {"smiles": "COc1ccc(C=C2C(=O)c3ccccc3C2=O)cc1O", "GFP fluorescence (kMESF)": "34.7 kMESF (inactive)"}, {"smiles": "Cc1ccc(NC(=O)CCc2ccccc2)cc1S(=O)(=O)N1CCOCC1", "GFP fluorescence (kMESF)": "40.4 kMESF (inactive)"}, {"smiles": "CN(C)c1ccc(N=Cc2nc(-c3ccccc3)oc2OC(=O)c2ccccc2)cc1", "GFP fluorescence (kMESF)": "43 kMESF (inactive)"}, {"smiles": "CN1CCN(C(c2ccc(C(F)(F)F)cc2)c2ccc3cccnc3c2O)CC1", "note": "(stereo unspecified)", "GFP fluorescence (kMESF)": "34 kMESF (inactive)"}, {"smiles": "CCCc1cc(N2CCN(c3ccccn3)CC2)n2nc(C)c(-c3ccccc3)c2n1", "GFP fluorescence (kMESF)": "38.8 kMESF (inactive)"}, {"smiles": "O=c1c2cc(Br)ccc2nc(-c2ccc([N+](=O)[O-])cc2)n1O", "GFP fluorescence (kMESF)": "29.6 kMESF (inactive)"}, {"smiles": "[O-][n+]1cccc2c(Br)cc(Br)c(O)c21", "GFP fluorescence (kMESF)": "50.1 kMESF (inactive)"}, {"smiles": "Cc1ccc(N=c2ssnc2Cl)cc1", "GFP fluorescence (kMESF)": "43.2 kMESF (inactive)"}, {"smiles": "Cc1ccc2[nH]c(C)c(/C=C/c3cc[n+](C)cc3)c2c1", "GFP fluorescence (kMESF)": "38.4 kMESF (inactive)"}, {"smiles": "O=C(NCc1ccc2c(c1)OCO2)c1nc(S(=O)(=O)Cc2ccccc2)ncc1Cl", "GFP fluorescence (kMESF)": "40.9 kMESF (inactive)"}, {"smiles": "Cc1c(NC2=C(Cl)C(=O)N(c3ccccc3)C2=O)c(=O)n(-c2ccccc2)n1C", "GFP fluorescence (kMESF)": "41.3 kMESF (inactive)"}, {"smiles": "CCCCc1ccc(/C=C2/C(=O)ON=C2c2ccccc2)s1", "GFP fluorescence (kMESF)": "38.4 kMESF (inactive)"}, {"smiles": "O=[N+]([O-])c1ccc(S(=O)(=O)c2ccccc2)nc1", "GFP fluorescence (kMESF)": "44.6 kMESF (inactive)"}, {"smiles": "Clc1cccc(CN2COc3c(cc(Cl)c4cccnc34)C2)c1", "GFP fluorescence (kMESF)": "35.6 kMESF (inactive)"}, {"smiles": "CC1=CC(=O)C(C(C)C)=C/C1=N/OS(=O)(=O)c1ccccc1", "GFP fluorescence (kMESF)": "36.5 kMESF (inactive)"}, {"smiles": "C[n+]1ccc(/C=C/c2c[nH]c3ccccc23)cc1", "GFP fluorescence (kMESF)": "44 kMESF (inactive)"}, {"smiles": "Cc1c(Br)c(=O)oc2c(Br)c(O)c(O)cc12", "GFP fluorescence (kMESF)": "38 kMESF (inactive)"}]}]}
